The source of these data is US20090209536A1, “AMINOQUINAZOLINE CANNABINOID RECEPTOR MODULATORS FOR TREATMENT OF DISEASE” (KALYPSYS, INC., priority 2007, published 2009).

In assay [1] the target is T1, human cannabinoid receptor type 2 (Homo sapiens, UniProt P34972).
T1 construct: expressed in transfected cells; membrane preparation
The assay is described as follows: Human CB2 Radioligand Binding Assay. The conditions noted are these: competition with [3H] CP-55,940; membranes from stably transfected CHO CB2 cells; read-out: CB2 Ligand Binding Asssay EC50. The procedure:
1. Human CB2 Radioligand Binding Assay
This receptor binding filtration assay measures the receptor-ligand interactions of compounds by measuring ability to compete with a radiolabeled control ligand. Reactions were performed in 96 deep-well plate (Costar 3961) with a final volume of 600 ul. Compounds were added to each well either in single point (10 uM final) or dose-response. Compounds were delivered in DMSO or further diluted in incubation buffer to a final assay DMSO concentration of 1%. Incubation buffer (50 mM Tris-HCl pH 7.4, 2.5 mM EGTA, 5 mM MgCl2, 5.0 mg/ml fatty acid free BSA) was added to each well. Following buffer addition, [^3H] CP-55,940 was added. Tritiated CP-55,940 (Perkin Elmer) was used at the Kd determined from prior saturation binding experiments conducted on each lot of membranes. Membrane preparations from stably transfected CHO CB2 cells were added and the reaction was incubated for 90 minutes at 30° C. Unifilter GF/C filtration plates (Perkin Elmer) were pre-wet with 0.05% polyethylenimine. Samples were transferred to Unifilter plates and separation of unbound radioligand was achieved using a vacuum manifold (Millipore). Following thorough washing with 5 ml/well ice-cold wash buffer (50 mM Tris-HCl pH 7.4, 2.5 mM EGTA, 5 mM MgCl2, 0.5 mg/ml fatty acid free BSA), filterplates were dried completely. Betaplate Scint Scintillation cocktail (25 ul, Perkin Elmer) was applied and plates were read using Microbeta Trilux (Wallac). Data analysis was performed in Spotfire. Activity of the positive control (100 nM CP-55,940) was set as 100% efficacy.
Stable recombinant Human CB2-CHO cell membranes were prepared as follows: Chinese Hamster Ovarian (CHO) cells stably expressing human cannabinoid receptor type 2 were grown to 90% confluence in 15×100 mm culture dishes under puromycin selection (5 ug/ml) Cells were harvested from culture flasks using a cell scraper, were washed once with cold phosphate-buffered saline (calcium and magnesium free) and pelleted by centrifugation at 400 g for 5 min at 4° C. Cell pellet was washed once with cold phosphate-buffered saline and centrifuged again at 400×g for 5 min at 4° C. The pellet was suspended in ice-cold lysis buffer (10 mM Tris-HCl, 0.1 mM EDTA, containing […], pH 7.5) and homogenized in a chilled 7 ml glass dounce homogenizer using 50 strokes. The homogenate was centrifuged at 400 g for 15 min at 4° C. The cloudy supernatant was collected and centrifuged at 41000 g for 30 min at 4° C. The resulting pellet was washed with ice-cold sucrose-free lysis buffer and centrifuged again at 41000 g for 30 min at 4° C. The membrane pellet was suspended in sucrose-free storage buffer (10 mm Tris-HCl, 0.1 mM EDTA, pH 7.5) to a concentration of 2-3 mg protein/ml. Aliquots were flash frozen in liquid nitrogen and stored at −80° C. Concentration was determined using Dc protein assay kit (Bio-Rad).

Assay [2] deals with T2, human cannabinoid receptor type 1 (Homo sapiens, UniProt P21554).
T2 construct: purchased Perkin Elmer RBHCB1M; host or cells: HEK 293 EBNA cells
The assay is described as follows: Human CB1 Radioligand Binding Assay (basis of selectivity, CB2 vs. CB1). The conditions noted are these: CB1: HEK 293 EBNA cells expressing human CB1; CB2: CHO CB2 membranes. The procedure: 2. Human CB1 Radioligand Binding Assay
The incubation buffer was composed of 50 mM Tris-HCl pH 7.4, 2.5 mM EDTA, 5 mM MgCl2, 5.0 mg/ml fatty acid free BSA and the wash buffer was composed of 50 mM Tris-HCl pH 7.4, 2.5 mM EDTA, 5 mM MgCl2, 0.5 mg/ml fatty acid free BSA.

T1 sequence (P34972 whole entry): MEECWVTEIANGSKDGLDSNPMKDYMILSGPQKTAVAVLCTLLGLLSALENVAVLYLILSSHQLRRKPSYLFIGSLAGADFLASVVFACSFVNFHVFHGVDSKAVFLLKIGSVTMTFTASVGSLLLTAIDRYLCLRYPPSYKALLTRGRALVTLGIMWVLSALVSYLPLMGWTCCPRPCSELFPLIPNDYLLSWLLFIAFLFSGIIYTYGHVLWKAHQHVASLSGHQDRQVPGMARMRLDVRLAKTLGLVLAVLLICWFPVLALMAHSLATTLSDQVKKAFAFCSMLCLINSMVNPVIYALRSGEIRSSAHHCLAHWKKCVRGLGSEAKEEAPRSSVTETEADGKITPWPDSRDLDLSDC
T2 sequence (P21554 whole entry): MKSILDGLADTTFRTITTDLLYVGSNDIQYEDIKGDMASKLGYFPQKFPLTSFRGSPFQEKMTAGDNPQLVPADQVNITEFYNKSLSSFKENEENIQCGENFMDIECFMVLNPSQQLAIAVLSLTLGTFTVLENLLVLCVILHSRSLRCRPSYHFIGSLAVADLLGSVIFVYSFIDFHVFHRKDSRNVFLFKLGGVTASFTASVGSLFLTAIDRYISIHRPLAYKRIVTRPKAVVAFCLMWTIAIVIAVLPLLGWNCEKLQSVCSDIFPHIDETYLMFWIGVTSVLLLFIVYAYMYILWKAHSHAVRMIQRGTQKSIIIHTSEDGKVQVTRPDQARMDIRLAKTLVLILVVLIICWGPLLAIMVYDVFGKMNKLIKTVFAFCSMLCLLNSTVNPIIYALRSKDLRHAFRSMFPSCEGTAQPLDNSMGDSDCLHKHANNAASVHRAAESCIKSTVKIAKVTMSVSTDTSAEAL

Regarding `CC(C)(C)c1ccc(Nc2nc(-c3ccc(C(F)(F)F)cc3)nc3ccccc23)cc1` [Example 46, (4-tert-Butylphenyl)-[2-(4-trifluoromethylphenyl)quinazolin-4-yl]amine], the EC50 in assay [1] is below 1000 nM. Also, the “Selectivity, CB2 vs. CB1” value in assay [2] was “+ (+ indicates > 10−fold)”.
For the compound `c1ccc(-c2nc(N3CCCC3)c3ccccc3n2)cc1` [Example 48, 2-Phenyl-4-(pyrrolidin-1-yl)quinazoline], the EC50 in assay [1] is above 1000 nM. Also, in assay [2], the “Selectivity, CB2 vs. CB1” value is on record as “− (− indicates ≦ 10−fold)”.
In the case of `Clc1ccccc1Nc1nc(-c2ccccc2)nc2ccccc12` [Example 49, N-(2-Chlorophenyl)-2-phenylquinazolin-4-amine], in assay [1], the EC50 is above 1000 nM. Further, the “Selectivity, CB2 vs. CB1” value in assay [2] was “− (− indicates ≦ 10−fold)”.
On to `c1ccc(-c2nc(NCC3CC3)c3ccccc3n2)cc1` [Example 50, N-(Cyclopropylmethyl)-2-phenylquinazolin-4-amine], for which the EC50 in assay [1] is above 1000 nM. Further, the “Selectivity, CB2 vs. CB1” value in assay [2] is reported as “− (− indicates ≦ 10−fold)”.
Take `CC(C)CNc1nc(-c2ccccc2)nc2ccccc12` [Example 51, N-iso-Butyl-2-phenylquinazolin-4-amine]: the EC50 in assay [1] is above 1000 nM. Moreover, the “Selectivity, CB2 vs. CB1” value in assay [2] is “− (− indicates ≦ 10−fold)”.
`c1ccc(-c2nc(N3CCCCC3)c3ccccc3n2)cc1` [Example 52, 2-Phenyl-4-(piperidin-1-yl)quinazoline]: the EC50 in assay [1] was above 1000 nM. Besides, in assay [2], the “Selectivity, CB2 vs. CB1” value is given as “− (− indicates ≦ 10−fold)”.
On to `Clc1ccccc1-c1nc(N2CCCC2)c2ccccc2n1` [Example 53, 2-(2-Chlorophenyl)-4-(pyrrolidin-1-yl)quinazoline], for which the EC50 in assay [1] is above 1000 nM. Further, the “Selectivity, CB2 vs. CB1” value in assay [2] is reported as “+ (+ indicates > 10−fold)”.
As for `Clc1ccccc1-c1nc(N2CCCCC2)c2ccccc2n1` [Example 54, 2-(2-Chlorophenyl)-4-(piperidin-1-yl)quinazoline], the EC50 in assay [1] is below 1000 nM. Further, the “Selectivity, CB2 vs. CB1” value in assay [2] is on record as “+ (+ indicates > 10−fold)”.
For `CN(Cc1ccccc1)c1nc(-c2ccccc2Cl)nc2ccccc12` [Example 55, N-Benzyl-2-(2-chlorophenyl)-N-methylquinazolin-4-amine], in that order: below 1000 nM and “− (− indicates ≦ 10−fold)”.
In the case of `Clc1ccccc1-c1nc(NCC2CC2)c2ccccc2n1` [Example 56, 2-(2-Chlorophenyl)-N-(cyclopropylmethyl)quinazolin-4-amine], in assay [1], the EC50 is above 1000 nM. Besides, the “Selectivity, CB2 vs. CB1” value in assay [2] was “− (− indicates ≦ 10−fold)”.
On the same counts, the results for `CN1CCN(c2nc(-c3ccccc3Cl)nc3ccccc23)CC1` [Example 57, 2-(2-Chlorophenyl)-4-(4-methylpiperazin-1-yl)quinazoline] are below 1000 nM and “+ (+ indicates > 10−fold)”.
Regarding `CC1CCN(c2nc(-c3ccccc3Cl)nc3ccccc23)CC1` [Example 58, 2-(2-Chlorophenyl)-4-(4-methylpiperidin-1-yl)quinazoline], the EC50 in assay [1] is below 1000 nM. For the same compound, the “Selectivity, CB2 vs. CB1” value in assay [2] is reported as “− (− indicates ≦ 10−fold)”.
For `CC1CCCCN1c1nc(-c2ccccc2Cl)nc2ccccc12` (centres unmarked) [Example 59, 2-(2-Chlorophenyl)-4-(2-methylpiperidin-1-yl)quinazoline], in assay [1], the EC50 is below 1000 nM. Besides, the “Selectivity, CB2 vs. CB1” value in assay [2] was “− (− indicates ≦ 10−fold)”.
As to `FC(F)(F)C1CCN(c2nc(-c3ccccc3Cl)nc3ccccc23)CC1` [Example 60, 2-(2-Chlorophenyl)-4-(4-(trifluoromethyl)piperidin-1-yl)quinazoline], the EC50 in assay [1] is below 1000 nM. In assay [2], the “Selectivity, CB2 vs. CB1” value was “− (− indicates ≦ 10−fold)”.
On to `Clc1ccccc1-c1nc(N2CCc3ccccc3C2)c2ccccc2n1` [Example 61, 2-(2-Chlorophenyl)-4-(3,4-dihydroisoquinolin-2(1H)-yl)quinazoline], for which, in assay [1], the EC50 was below 1000 nM. For the same compound, in assay [2], the “Selectivity, CB2 vs. CB1” value was “− (− indicates ≦ 10−fold)”.
Turning to `CCOC(=O)N1CCN(c2nc(-c3ccccc3Cl)nc3ccccc23)CC1` [Example 62, Ethyl 4-(2-(2-Chlorophenyl)quinazolin-4-yl)piperazine-1-carboxylate], the concentration giving a half-maximal response (EC50) in assay [1] was below 1000 nM. Besides, the “Selectivity, CB2 vs. CB1” value in assay [2] is “+ (+ indicates > 10−fold)”.
Turning to `CN(c1nc(-c2ccccc2Cl)nc2ccccc12)C1CCCCC1` [Example 63, 2-(2-Chlorophenyl)-N-cyclohexyl-N-methylquinazolin-4-amine], the EC50 in assay [1] was below 1000 nM. Moreover, the “Selectivity, CB2 vs. CB1” value in assay [2] is reported as “− (− indicates ≦ 10−fold)”.
Take `CCCCN(C)c1nc(-c2ccccc2Cl)nc2ccccc12` [Example 64, N-Butyl-2-(2-chlorophenyl)-N-methylquinazolin-4-amine]: the EC50 in assay [1] is below 1000 nM. Moreover, the “Selectivity, CB2 vs. CB1” value in assay [2] is “− (− indicates ≦ 10−fold)”.
Regarding `O=C1CCN(c2nc(-c3ccccc3Cl)nc3ccccc23)CC1` [Example 65, 1-(2-(2-Chlorophenyl)quinazolin-4-yl)piperidin-4-one], the EC50 in assay [1] is below 1000 nM. Moreover, in assay [2], the “Selectivity, CB2 vs. CB1” value is listed as “− (− indicates ≦ 10−fold)”.
On to `OC1(c2ccc(Cl)cc2)CCN(c2nc(-c3ccccc3Cl)nc3ccccc23)CC1` [Example 66, 4-(4-Chlorophenyl)-1-[2-(2-chlorophenyl)quinazolin-4-yl]piperidin-4-ol], for which the EC50 in assay [1] is below 1000 nM. Moreover, in assay [2], the “Selectivity, CB2 vs. CB1” value is “− (− indicates ≦ 10−fold)”.
In the case of `Cc1ccc(Cl)cc1N1CCN(c2nc(-c3ccccc3Cl)nc3ccccc23)CC1` [Example 67, 4-[4-(5-Chloro-2-methylphenyl)piperazin-1-yl]-2-(2-chlorophenyl) quinazoline], the EC50 in assay [1] is below 1000 nM. The “Selectivity, CB2 vs. CB1” value in assay [2] is “− (− indicates ≦ 10−fold)”.
On to `Clc1ccccc1-c1nc(N2CCSCC2)c2ccccc2n1` [Example 68, 2-(2-Chlorophenyl)-4-thiomorpholin-4-ylquinazoline], for which the EC50 in assay [1] was below 1000 nM. Also, in assay [2], the “Selectivity, CB2 vs. CB1” value was “− (− indicates ≦ 10−fold)”.
Take `CC(C)(C)c1ccc(Nc2nc(-c3ccccc3Cl)nc3ccccc23)cc1` [Example 69, (4-tert-Butylphenyl)-[2-(2-chlorophenyl)quinazolin-4-yl]amine]: in assay [1], the EC50 was above 1000 nM. Further, the “Selectivity, CB2 vs. CB1” value in assay [2] is on record as “− (− indicates ≦ 10−fold)”.
For the compound `O=C1CCCN1c1nc(-c2ccccc2Cl)nc2ccccc12` [Example 70, 1-(2-(2-Chlorophenyl)quinazolin-4-yl)pyrrolidin-2-one], in assay [1], the EC50 is above 1000 nM. In addition, the “Selectivity, CB2 vs. CB1” value in assay [2] is listed as “− (− indicates ≦ 10−fold)”.
On the same counts, the results for `O=C1CNCCN1c1nc(-c2ccccc2Cl)nc2ccccc12` [Example 71, 1-(2-(2-Chlorophenyl)quinazolin-4-yl)piperazin-2-one] are above 1000 nM and “− (− indicates ≦ 10−fold)”.
On the same counts, the results for `O=C1CN(c2nc(-c3ccccc3Cl)nc3ccccc23)CCN1` [Example 72, 4-(2-(2-Chlorophenyl)quinazolin-4-yl)piperazin-2-one] are above 1000 nM and “− (− indicates ≦ 10−fold)”.
Turning to `CCN1CCN(c2nc(-c3ccccc3Cl)nc3ccccc23)C(=O)C1` [Example 73, 1-(2-(2-Chlorophenyl)quinazolin-4-yl)-4-ethylpiperazin-2-one], in assay [1], the EC50 was above 1000 nM. Also, the “Selectivity, CB2 vs. CB1” value in assay [2] is recorded as “− (− indicates ≦ 10−fold)”.
On to `CN1CCN(c2nc(-c3ccccc3Cl)nc3ccccc23)C(=O)C1` [Example 74, 1-(2-(2-Chlorophenyl)quinazolin-4-yl)-4-methylpiperazin-2-one], for which, in assay [1], the EC50 is above 1000 nM. In assay [2], the “Selectivity, CB2 vs. CB1” value is “− (− indicates ≦ 10−fold)”.

For orientation: EC50 means the concentration that produces a half-maximal response.
